Test results: US20160214926A1, “DIPHENYLOXYALKYLAMINE DERIVATIVES AND ARYLOXYALKYLAMINE DERIVATIVES, PHARMACEUTICAL COMPOSITION, USE OF SAID PHARMACEUTICAL COMPOSITION FOR TREATING, PREVENTING OR INHIBITING CHRONIC PULMONARY INFLAMMATORY DISEASES AND METHOD FOR TREATING OR PREVENTING SUCH DISEASES” (FUNDACAO OSWALDO CRUZ, priority 2013, published 2016)

Assays:
[1] = system: mast cells of the RBL-2H3 line; assay: Antigen-induced degranulation of sensitized mast cells (beta-hexosaminidase release); format: cell-based; conditions: Rattus norvegicus; for IC50: RBL-2H3, 1 h, RBL-2H3, DNP-BSA 10 ng/ml, 60 minutes treatment, read-out: IC50 blocking of anaphylactic mast cell degranulation; for Emax: RBL-2H3, DNP-BSA, read-out: EMAX blocking of anaphylactic mast cell degranulation
Experimental: For this study, mast cells of the RBL-2H3 line were used, as previously reported (Beaven et al., 1987). […] The cells were then dissociated from the plate using trypsin, centrifuged at 1000 rpm for 5 minutes and distributed in 48-well plates at a density of 125,000 cells per well. The cells were sensitized with monoclonal DNP-specific […] (1 μg/mL) diluted in the same medium used for the cultivation and maintained in the oven for 20 hours. After this period, the cells were washed with Tyrode-gelatin and subjected to treatment with increasing concentrations of […]-209 or mexiletine for 60 minutes. Then, incubation was performed with DNP-BSA (10 ng/ml) for a further period of 60 minutes. After this period, 10 μL of supernatant were collected from each well and added to a 96-well plate. The cells were lysed with 200 μL of 0.1% Triton X-100 and 10 μL of the lysate of each plate were added to the 96-well plate. Then, 40 μL of substrate for the β-hexosaminidase enzyme were added to the samples. After 40 minutes of reaction, reaction stopping solution (0.2 M glycine) was added, generating a colorimetric response, which was measured by spectrophotometer (λ=405 nm).

A/J mice [2] = assay: Acute airway inflammation induced by cigarette smoke; format: in vivo; conditions: JME-209 30 and 100 mg/kg
Experimental: Male A/J mice (18-20 g), coming from the Laboratory Animal Breeding Center of Oswaldo Cruz Foundation, were used in the experiments. The animals were placed in a chamber and subjected to an atmosphere enriched with 100 ml of smoke from 4 filter cigarettes (trade mark) for 1 minute on four consecutive days. Control animals were exposed to the condition in which cigarette smoke was replaced by equal volume of ambient air (Castro et al., 2009).
[…] The compounds were dissolved in 0.9% NaCl just prior to administration.
Obtaining of bronchoalveolar lavage, as well as the total and differential leukocyte counts carried out in this effluent, were made as previously described (Olsen et al., 2011). Thus, after 24 hrs of the last exposure to cigarette smoke, the mice were sacrificed by terminal anesthesia with thiopental (500 mg/kg). Then, they had the trachea dissected and cannulated BAL was performed by 3 consecutive lavages of 800 μl of PBS containing EDTA (10 mM). The lavages were then subjected to centrifugation (1500 rpm-10 minutes) and the cell “pellet” resuspended in the volume of 0.5 ml of PBS/EDTA solution 10 mM. The total leukocyte count from the lavage was performed in a Neubauer chamber by light microscopy (100× magnification), diluting an aliquot of the cell suspension from the lavage in TPrk liquid (1:40). The differential counting was performed on cytocentrifuged, which were stained with May-Grunwald-Giemsa and assessed using oil immersion objective (1000× magnification).

A/J mice [3] = assay: LPS-induced lung inflammation and airway hyperreactivity; format: in vivo
Experimental: Male A/J mice (18-20 g), coming from the Laboratory Animal Breeding Center of Oswaldo Cruz Foundation, were used in the experiments. The mice were anesthetized with halothane aerosol ([…], SP, Brazil) to receive intranasal administration of LPS (25 μg/25 μl 0.9% NaCl, instillation) or 0.9% NaCl (25 μl) (negative control). […] Obtaining of bronchoalveolar lavage, as well as the total and differential leukocyte counts carried out in this effluent, were made as previously described (Kummerle et al., 2012). Thus, after 18 hrs of LPS instillation, the mice were sacrificed by terminal anesthesia with thiopental (500 mg/kg). Then, they had the trachea dissected and cannulated. Bronchoalveolar lavage (BAL) was performed by 3 consecutive lavages of 800 μl of PBS containing EDTA (10 mM). The lavages were then subjected to centrifugation (1500 rpm-10 minutes) and the cell “pellet” resuspended in the volume of 0.5 ml of PBS/EDTA solution 10 mM. The total leukocyte count from the lavage was performed in a Neubauer chamber by light microscopy (100× magnification), diluting an aliquot of the cell suspension from the lavage in TPrk liquid (1:40). The differential counting was performed on cytocentrifuged, which were stained with May-Grunwald-Giemsa and assessed using oil immersion objective (1000× magnification) (Kummerle et al., 2012). The airway hyperreactivity was also assessed 18 hours after LPS, by exposing the animals to increasing concentrations of aerosolized methacholine (3-27 mg/ml) in FinePoint R/C Buxco® system (Buxco Electronics, Sharon, Conn., USA). The mice were anesthetized with Nembutal (60 mg/kg, i.p.) for the tracheostomy procedure and connection of the animal to mechanical ventilation and pneumotachograph of the FinePoint platform. The neuromuscular activity was blocked with pancuronium bromide (1 mg/kg, i.v.) to enable the pulmonary resistance records (cm H20/mL/s) and elastance (cm H20/mL) in each respiratory cycle, as previously reported (Olsen et al., 2011).

A/J mice [4] = assay: Methacholine-induced bronchospasm (Penh), whole-body plethysmography; format: in vivo; conditions: for blocking of methacholine-induced increase of Penh (cholinergic bronchospasm): 30 and 100 mg/kg orally
Experimental: A/J mice of both sexes were used, weighing between 18 and 20 g, coming from the Laboratory Animal Breeding Center of Oswaldo Cruz Foundation. Using barometric whole-body plethysmography (Buxco Research System, Wilmington, N.C.), bronchospasm responses caused by subsequent inhalations of methacholine (12, 25 and 50 mg/ml for 2.5 minutes, 5-minute intervals) were measured in standard A/J mice, awake, not immobilized, as previously reported (Coelho et al., 2008; Hamelmann et al., 1997). Penh measures in response to methacholine challenge were performed 1 hour and 3 hours after treatment with JME-207 and JME-209 (30 and 100 mg/kg) administered orally (gavage).

tracheal rings = assay: Anaphylactic (ovalbumin-induced) contraction of tracheal rings from sensitized rats; set-up: species or system Wistar rats; conditions: compound 30 μM
Experimental: In this study, Wistar rats of both sexes were used, weighing between 200 and 250 g, coming from the Laboratory Animal Breeding Center of Fundacdo Oswaldo Cruz. As described previously (da Costa et al., 2007), the animals were sensitized by injection into the dorsal subcutaneous tissue with mixture containing 50 μg of ovalbumin and 5 mg of aluminum hydroxide on days 0 and 7. On the 14th day after the first sensitization, the animals were sacrificed for the removal of the trachea. After a stabilization period of 30 minutes, the tracheal rings were contracted initially with carbachol (2.5 μM) for testing the feasibility and reproducibility of the responses of the preparation.
The tracheal rings were exposed to increasing concentrations of JME-173 (3-30 μM), or carrier (0.9% NaCl) for 30 minutes before the triggering of the contractile response triggered by ovalbumin (100 μg/ml). Salmeterol (30 μM) was used as reference treatment. The responses were expressed as mean±Standard Error of the Mean of at least 5 tracheal segments. All results were expressed as percentage of the contraction produced by 2.5 μM of carbachol.

rat tracheal rings = assay: Inhibition of carbachol-induced contraction of rat tracheal rings (pretreatment); conditions: Rattus norvegicus
From the text: In this study, Wistar rats of both sexes were used, weighing between 200 and 250 g, coming from the Laboratory Animal Breeding Center of Fundacdo Oswaldo Cruz. As previously described (Coelho et al., 2008), the animals were sacrificed by exposure to air atmosphere enriched with CO2, Then, the anterior cervical region was opened so that the trachea could be located and removed. It was then transferred to a Petri dish containing Krebs solution with the following composition (mM): NaCl (118), KCl (4.8), CaCl2 (2.5), MgSO4 (1.2), KH2PO4 (1.2), NaHCO3 (24), and glucose (11). The total segment was divided into fragments of about 3 to 4 rings, which were kept in another Petri dish containing Krebs solution. Each fragment was mounted vertically on a 10 ml cuvette with Krebs solution maintained at 37° C. and aerated with carbogen mixture (95% O2 and 5% CO2). The lower rod is fixed to the cuvette base and the top portion was attached to the isometric transducer for measuring the voltage variation of the fragment. The transducer was connected to a device which transforms the voltage variation in digital record. The fragments were subjected to a basal voltage of 1 g and were calibrated, so that the subsequent contractions could be expressed as a percentage of this 1 g voltage. The solutions were introduced inside the cuvettes with the aid of an automatic pipette. The end of the tip was always placed at the same height and position, without touching the muscle. The tracheal rings were initially contracted with 2.5 μM of carbachol. When the contractions reached the plateau, each segment was washed until the total relaxation of the smooth muscle. […] All results were expressed as percentage of the contraction produced by 2.5 μM of carbachol (Coelho et al., 2008).

[5] = system: rat tracheas pre-contracted with carbachol; assay: Relaxation of rat trachea pre-contracted with carbachol
Experimental: To assess the potential relaxing effect of the respiratory smooth muscle, rat tracheas were obtained and maintained in an isolated organ bath, as previously described (Coelho et al., 2008). The tracheal segments were then pre-contracted with carbachol at the concentration of 2.5 μM and subjected to increasing concentrations of the tested compounds. All results were expressed as percentage of the contraction produced by carbachol (Coelho et al., 2008).

A/J mice [6] = assay: Ovalbumin asthma model: airway hyperreactivity, leukocyte infiltration, cytokines (nebulization); format: in vivo
Experimental: Male A/J mice (18-20 g), coming from the Laboratory Animal Breeding Center of Oswaldo Cruz Foundation, were used in the experiments. The animals were previously sensitized with a mixture of ovalbumin (OVA) (50 μg) (Grade V; Sigma, St. Louis, Mo., USA) and aluminum hydroxide (5 mg) administered subcutaneously on day 0 with boost on day 14 (equal suspension administered intraperitoneally). Nasal instillations of OVA (25 μg/25 μl in sterile 0.9% NaCl) were administered on days 14, 21, 28 and 35, with the hyperresponsiveness analysis performed 24 hours after the last challenge. […] That is, the treatments took place after the installation of asthma framework, reflecting a therapeutic action of the respective compounds analyzed.
The effect of the treatments on bronchial hyperreactivity was investigated by measuring the resistance changes and pulmonary elastance, using invasive barometric plethysmography whole-body system (Buxco, USA), as previously described (Olsen et al., 2012).

[7] = 30 and 100 mg/kg orally 1 hour before LPS

SMILES: CC(N)COc1ccc(-c2ccccc2)cc1.Cl (centres unmarked) [JME-209]
- IC50 [1]: 28.6 µM
- Emax [1]: 100%
- eosinophils in bronchoalveolar effluent (A/J mice [2]; dexamethasone 1 mg/kg, orally): blocked
- mononuclear cells in bronchoalveolar effluent (A/J mice [2]; dexamethasone 1 mg/kg, orally): blocked
- neutrophils in bronchoalveolar effluent (A/J mice [2]; dexamethasone 1 mg/kg, orally): blocked
- accumulation of total leukocytes in bronchoalveolar space (A/J mice [2]; dexamethasone 3 mg/kg, orally 1 hr before smoke): significantly inhibited
- increase in the number of mononuclear cells in bronchoalveolar lavage (A/J mice [3]; [7]): without significantly altering
- levels of eosinophils in bronchoalveolar lavage (A/J mice [3]; [7]): reducing
- levels of neutrophils in bronchoalveolar lavage (A/J mice [3]; [7]): reducing
- leukocyte infiltration in bronchoalveolar space (A/J mice [3]; 30 and 100 mg/kg orally 1 hour before LPS, 18 hours after challenge): inhibited
- airway hyperreactivity (lung resistance and elastance) (A/J mice [3]; oral treatment 1 hour before LPS, 18 hours after LPS): inhibited
- action time (A/J mice [4]; 100 mg/kg orally): at least 3 hours
- blocking of methacholine-induced increase of Penh (cholinergic bronchospasm) (A/J mice [4]; 1 hour after treatment): slight blocking
- blocking of methacholine-induced increase of Penh (cholinergic bronchospasm) (A/J mice [4]; 3 hours after treatment): active only at the highest dose

SMILES: OCc1cc(C(O)CNCCCCCCOCCCCc2ccccc2)ccc1O (centres unmarked) [salmeterol, reference compound]
- blocking of anaphylactic contraction (tracheal rings): 52%

SMILES: Cc1cc(I)ccc1OCC(C)N.Cl (centres unmarked) [JME-207]
- IC50 [1]: 2.3 µM
- Emax [1]: 94%
- IC50 (rat tracheal rings; carbachol 10 μM, pretreated 10 minutes): 40.9 µM
- Emax (rat tracheal rings; carbachol 10 μM, pretreated 10 minutes, mean ± SEM, read-out: EMAX maximum effect of inhibition of carbachol-induced contraction): 92.9 ± 4.3%
- inhibition at 100 µM (rat tracheal rings; compound 100 μM, pre-treatment 10 minutes, read-out: inhibition of the muscarinic contraction): ~93%
- EC50 ([5]; Rattus norvegicus, trachea pre-contracted with carbachol 2.5 μM, mean±SEM): 1 mM
- times more potent as relaxation inducers than mexiletine ([5]; pre-contracted trachea): 146 times
- maximum relaxation effect ([5]; trachea pre-contracted with carbachol 2.5 μM, mean±SEM): 111%
- IL-5 generation in lung tissue (A/J mice [6]; nebulization 2%): equally sensitive
- IL-13 generation in lung tissue (A/J mice [6]; nebulization 2%): equally sensitive
- eotaxin-2 generation in lung tissue (A/J mice [6]; nebulization 2%): only the latter inhibited
- increased production of eotaxin-1 (A/J mice [6]; nebulization 2%): failed to modify
- airway hyperreactivity (lung resistance and elastance after methacholine) (A/J mice [6]; nebulization 2% for 30 minutes, OVA sensitized and challenged): abolished
- blocking of methacholine-induced increase of Penh (cholinergic bronchospasm) (A/J mice [4]; 3 hours after treatment): significantly inhibited
